One assay has as its target PICK1 (Rattus norvegicus, UniProt Q9EP80). As to the kind of experiment: Fluorescence polarization competition binding. The arrangement: Full length rat PICK1 (pET41) was, as described earlier (1), expressed in BL21-DE3-pLysS; made in house; host or cells: E. coli BL21-DE3-pLysS. The protocol:
SUPPORTING INFORMATION: Method Section.
Sex as a biological variable.
All peptides were ordered from WuXI AppTec (Shanghai, China) or TAG-Copenhagen […]
Protein expression and purification.
Full length rat PICK1 (pET41) was, as described earlier (1), expressed in BL21-DE3-pLysS and grown at 37 °C, induced at OD600= 0.6 with 1 mM IPTG, and grown for 16 hours at 20 °C.
Cultures were harvested and re-suspended in 50 mM Tris, 125 mM NaCl, 2 mM DTT (Sigma), 1% Triton X-100 (Sigma), 20 µg/mL DNAse 1 and half a tablet of cOmplete protease inhibitor cocktail (Roche) pr. 1 L culture. The resuspended pellets were frozen at -80 °C for later purification. The lysate was cleared by centrifugation (36,000 x g for 30 min at 4 °C), and the supernatant was incubated with Glutathione-Sepharose 4B beads (GE Healthcare) for two hours at 4 °C under gentle rotation and then centrifuged at 4000 x g for 5 min. The supernatant was removed, and the beads were washed twice in 35 mL 50 mM Tris, 125 mM NaCl, 2 mM DTT, and 0.01% Triton-X100. The beads were transferred to PD-10 Bio-Spin® Chromatography columns (Bio-Rad) and washed with an additional 3 column volumes. Each column was sealed and 0.075 U/µL, Novagen® was added for cleavage O/N at 4 °C under gentle rotation. PICK1 was eluted on ice and concentration was measured on a NanoDrop 3000.
Fluorescence polarization binding.
The competition binding assay was carried out using a fixed concentration of PICK1 (0.5 µM) […]
binding surface 96 well plates (Sigma-Aldrich, Ref. no. 3686). The plates were incubated 20 min on ice and the fluorescence polarization was measured on an Omega POLARstar plate reader (BMG LABTECH) using excitation filter of 485 nm and long pass emission filter of 520 nm. The data was plotted and fitted to a competitive binding One Site fit using GraphPad […]
Superdex200 Increase 10/300.
On the technique in general: In fluorescence polarisation assays a small probe gives low polarisation when free and higher when bound to something large.

Assay [1] relates to mice, CFA model of inflammatory pain. As to the kind of experiment: CFA model of inflammatory pain, von Frey, i.t. administration. Format: in vivo, mouse. To be noted: CFA day 2, i.t. 20 μM, 7 μL. The protocol:
Unless otherwise specified, wild type C57BL/6NRj mice (male and female, aged eight-weeks at the beginning of experiment) were used (Janvier, France). Animals were allowed at least seven days of habituation to the animal facility before initiation of experiment. Mice were group-housed in a temperature-controlled room, maintained on a 12/12hour light/dark cycle (lights on at 6 A.M) with free access to standard rodent chow (Altromin 1342 (Brogaarden, […]
Drug administration and dosing for animal experiments.
All compounds were diluted in PBS or saline (depending on control) and administered through different routes i.t. (7 μL/mouse)), i.p. (10 μL/g) or s.c. (10 μL/g)) as indicated. Doses of mPD5 were based on previous studies with TPD5 (6) with a subcutaneous dose-range included in the CFA studies further guiding dose selection for SNI, STZ and CIBP studies. Pregabalin dose was chosen based on previous experience from Phenotype Expertise (Marseilles, France). In the CIBP model, a dose of […] morphine was chosen to avoid hyperactivity, though known to provide only partial pain relief in this model. In remaining experiments, 5 mg/kg morphine was chosen, known to provide full pain relief, except for the conditioned place preference experiment, where 10 mg/kg was used instead in accordance with literature. […]

Chain of PICK1 (Q9EP80 whole entry): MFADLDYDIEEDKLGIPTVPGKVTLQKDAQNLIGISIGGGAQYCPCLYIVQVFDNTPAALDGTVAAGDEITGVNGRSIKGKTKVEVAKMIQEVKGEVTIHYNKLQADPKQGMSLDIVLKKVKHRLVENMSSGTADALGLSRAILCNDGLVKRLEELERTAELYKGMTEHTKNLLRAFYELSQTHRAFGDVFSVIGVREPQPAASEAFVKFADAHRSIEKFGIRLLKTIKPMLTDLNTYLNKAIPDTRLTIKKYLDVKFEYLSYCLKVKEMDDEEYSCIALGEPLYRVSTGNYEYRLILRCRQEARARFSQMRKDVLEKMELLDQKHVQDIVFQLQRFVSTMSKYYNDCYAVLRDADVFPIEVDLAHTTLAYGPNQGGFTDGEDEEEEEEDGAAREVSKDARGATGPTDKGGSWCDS

`CCCCCCCCCCCCCC(=O)N(CCOCCOCCC(=O)N[C@@H](Cc1c[nH]cn1)C(=O)N[C@@H](Cc1c[nH]c2ccccc12)C(=O)N[C@@H](CC(C)C)C(=O)N[C@@H](CCCCN)C(=O)N[C@H](C(=O)O)C(C)C)CCOCCOCCC(=O)N[C@@H](Cc1c[nH]cn1)C(=O)N[C@@H](Cc1c[nH]c2ccccc12)C(=O)N[C@@H](CC(C)C)C(=O)N[C@@H](CCCCN)C(=O)N[C@H](C(=O)O)C(C)C` [mPD5, myristoyl-NPEG4-(HWLKV)2]: the Ki (as a rule, a measure of affinity in units of concentration, obtained from inhibition or displacement) at PICK1 stood at 3 nM. Also, on PICK1 (from Ki,app), the “affinity gain compared with D5 (HWLKV) alone” value was “approximately 1000 fold” and the “affinity gain compared with PD5” value is on record as 30 fold. Besides, in assay [1] (1 hour and 5 hours after administration), the “effect on mechanical hypersensitivity (PWT)” value was “significant relief of mechanical hypersensitivity”. Also, the “effect on mechanical hypersensitivity (PWT)” value in assay [1] (24 hours after administration) is recorded as “no effect”.
